The subject of this experiment is L1210 leukemia ip in BDF1 mice, survival T/C. Description: NCI In Vivo Anticancer Drug Screen. Data for tumor model L1210 Leukemia (intraperitoneal) in B6D2F1 (BDF1) mice. The following applies: endpoint: mean survival time, higher = longer survival. The gist of the method: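 Value reflects the ratio of survival in compound-treated mice to survival in vehicle-treated controls, with both groups carrying the same transplanted tumor.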

Setting [1] is: dose: 100.0 mg/kg/injection, schedule: Q01DX001 (ip), vehicle: saline.
Setting [2] is: dose: 100.0 mg/kg/injection, schedule: Q01DX009 (ip), vehicle: Klucel (hydroxypropylcellulose) (HPC).
Setting [3] is: dose: 100.0 mg/kg/injection, schedule: Q01DX009 (ip), vehicle: saline with Tween-80.
[4] abbreviates: dose: 100.0 mg/kg/injection, schedule: Q04DX003 (ip), vehicle: saline.
[5] abbreviates: dose: 200.0 mg/kg/injection, schedule: Q01DX001 (ip), vehicle: saline.
The mark [6] stands for this setting: dose: 200.0 mg/kg/injection, schedule: Q01DX009 (ip), vehicle: Klucel (hydroxypropylcellulose) (HPC).
Where [7] appears, read: dose: 200.0 mg/kg/injection, schedule: Q01DX009 (ip), vehicle: saline with Tween-80.
[8] abbreviates: dose: 200.0 mg/kg/injection, schedule: Q04DX003 (ip), vehicle: saline.
[9] abbreviates: dose: 400.0 mg/kg/injection, schedule: Q01DX009 (ip), vehicle: Klucel (hydroxypropylcellulose) (HPC).
Where [10] appears, read: dose: 400.0 mg/kg/injection, schedule: Q04DX003 (ip), vehicle: saline.
[11] abbreviates: dose: 100.0 mg/kg/injection, schedule: Q01DX009 (ip), vehicle: saline.
Setting [12] is: dose: 100.0 mg/kg/injection, schedule: Q04DX003 (ip), vehicle: saline with Tween-80.
Where [13] appears, read: dose: 200.0 mg/kg/injection, schedule: Q01DX009 (ip), vehicle: saline.
Where [14] appears, read: dose: 400.0 mg/kg/injection, schedule: Q01DX009 (ip), vehicle: saline with Tween-80.

Several values for one entry are separate records, joined by “and”; a condition that tells them apart may be missing. Identical values can stand only once. Inconclusive results and toxic doses are left out.

For the compound `O=C(NO)c1ccccc1`, the T/C was 97 % of control (dose: 25.0 mg/kg/injection, schedule: Q03HX032 (ip), vehicle: saline); 95 % of control (dose: 38.0 mg/kg/injection, schedule: Q03HX032 (ip), vehicle: saline); 90 % of control (dose: 50.0 mg/kg/injection, schedule: Q01DX009 (ip), vehicle: Klucel (hydroxypropylcellulose) (HPC)); 98 % of control (dose: 50.0 mg/kg/injection, schedule: Q01DX009 (ip), vehicle: saline with Tween-80); 92 % of control (dose: 57.0 mg/kg/injection, schedule: Q01DX015 (ip), vehicle: saline); 100 % of control (dose: 57.0 mg/kg/injection, schedule: Q03HX032 (ip), vehicle: saline). The T/C (dose: 62.0 mg/kg/injection, schedule: Q03HX024 (ip), vehicle: saline) is 96 % of control; the T/C (dose: 85.0 mg/kg/injection, schedule: Q01DX015 (ip), vehicle: saline) was 90 % of control; the T/C (dose: 85.0 mg/kg/injection, schedule: Q03HX032 (ip), vehicle: saline) is 98 % of control and 100 % of control; the T/C under setting [1] was 95 % of control; the T/C under setting [2] was 97 % of control and 113 % of control; the T/C (dose: 100.0 mg/kg/injection, schedule: Q01DX009 (ip), vehicle: acetone) was 98 % of control. The T/C is, setting by setting: under setting [3], 96 % of control; under setting [4], 103 % of control; (dose: 125.0 mg/kg/injection, schedule: Q03HX024 (ip), vehicle: saline) 91 % of control; (dose: 130.0 mg/kg/injection, schedule: Q01DX015 (ip), vehicle: saline) 100 % of control; (dose: 130.0 mg/kg/injection, schedule: Q03HX032 (ip), vehicle: saline) 98 % of control; (dose: 177.0 mg/kg/injection, schedule: Q01DX009 (ip), vehicle: saline) 100 % of control. Besides, the T/C was 110 % of control (dose: 178.0 mg/kg/injection, schedule: Q01DX009 (ip), vehicle: saline with Tween-80); 92 % of control under setting [5]; 115 % of control and 124 % of control under setting [6]; 98 % of control (dose: 200.0 mg/kg/injection, schedule: Q01DX009 (ip), vehicle: acetone); 112 % of control under setting [7]; 97 % of control and 113 % of control (dose: 200.0 mg/kg/injection, schedule: Q01DX015 (ip), vehicle: saline). The T/C is 108 % of control under setting [8]; 120 % of control (dose: 264.0 mg/kg/injection, schedule: Q01DX009 (ip), vehicle: acetone); 123 % of control (dose: 264.0 mg/kg/injection, schedule: Q01DX009 (ip), vehicle: saline); 105 % of control and 112 % of control (dose: 264.0 mg/kg/injection, schedule: Q04DX003 (ip), vehicle: saline); 113 % of control (dose: 266.0 mg/kg/injection, schedule: Q01DX009 (ip), vehicle: saline with Tween-80); 121 % of control (dose: 300.0 mg/kg/injection, schedule: Q01DX015 (ip), vehicle: saline). Also, the T/C was 168 % of control under setting [9]; 153 % of control (dose: 400.0 mg/kg/injection, schedule: Q01DX009 (ip), vehicle: acetone); 117 % of control and 91 % of control under setting [10]; 153 % of control (dose: 450.0 mg/kg/injection, schedule: Q01DX015 (ip), vehicle: saline); 159 % of control (dose: 600.0 mg/kg/injection, schedule: Q01DX009 (ip), vehicle: saline).
With `C=C[CH2][Sn]([c]1ccccc1)([c]1ccccc1)[c]1ccccc1`, the T/C by setting is: (dose: 50.0 mg/kg/injection, schedule: Q01DX009 (ip), vehicle: saline) 92 % of control and 101 % of control; under setting [11], 96 % of control and 101 % of control; under setting [12], 91 % of control; under setting [13], 96 % of control and 97 % of control.
On to `CC(C)OC(=O)N1CCN(C(=O)OC(C)C)CC1`, for which the T/C by setting is: under setting [2], 97 % of control; (dose: 100.0 mg/kg/injection, schedule: Q04DX002 (ip), vehicle: Klucel (hydroxypropylcellulose) (HPC)) 93 % of control; under setting [6], 94 % of control; (dose: 200.0 mg/kg/injection, schedule: Q04DX002 (ip), vehicle: Klucel (hydroxypropylcellulose) (HPC)) 93 % of control; under setting [9], 102 % of control; (dose: 400.0 mg/kg/injection, schedule: Q04DX002 (ip), vehicle: Klucel (hydroxypropylcellulose) (HPC)) 117 % of control.
On to `N#CC1c2ccccc2C=CN1C(=O)CCBr` (centres undefined), for which the T/C reads like this: under setting [3], 112 % of control; under setting [7], 102 % of control; under setting [14], 96 % of control.
For `CCCCCCCCCCCCCCC[n+]1ccc(C#N)cc1`, the T/C by setting is: (dose: 5.0 mg/kg/injection, schedule: Q01DX009 (ip), vehicle: acetone) 101 % of control; (dose: 10.0 mg/kg/injection, schedule: Q01DX001 (ip), vehicle: saline) 93 % of control; (dose: 10.0 mg/kg/injection, schedule: Q01DX009 (ip), vehicle: acetone) 100 % of control; (dose: 10.0 mg/kg/injection, schedule: Q04DX003 (ip), vehicle: saline) 101 % of control; (dose: 20.0 mg/kg/injection, schedule: Q01DX001 (ip), vehicle: saline) 93 % of control; (dose: 20.0 mg/kg/injection, schedule: Q04DX003 (ip), vehicle: saline) 94 % of control. For the same compound, the T/C was 98 % of control (dose: 40.0 mg/kg/injection, schedule: Q01DX001 (ip), vehicle: saline) and 92 % of control (dose: 40.0 mg/kg/injection, schedule: Q04DX003 (ip), vehicle: saline).
For the compound `Cc1ccc([N+](=O)[O-])cc1NC(=O)Nc1cccc(O)c1`, the T/C runs as follows: under setting [2], 95 % of control; under setting [6], 86 % of control; under setting [9], 93 % of control.
As to `COC(=O)CCC(=O)c1ccc(Cl)cc1`, the T/C by setting is: (dose: 100.0 mg/kg/injection, schedule: Q01DX009 (ip), vehicle: gum acacia) 98 % of control; (dose: 100.0 mg/kg/injection, schedule: Q04DX003 (ip), vehicle: gum acacia) 100 % of control; (dose: 200.0 mg/kg/injection, schedule: Q01DX009 (ip), vehicle: gum acacia) 97 % of control; (dose: 200.0 mg/kg/injection, schedule: Q04DX003 (ip), vehicle: gum acacia) 96 % of control; (dose: 400.0 mg/kg/injection, schedule: Q01DX009 (ip), vehicle: gum acacia) 101 % of control; (dose: 400.0 mg/kg/injection, schedule: Q04DX003 (ip), vehicle: gum acacia) 102 % of control.
Consider `Cc1n[nH]c(=S)[nH]c1=S`, for which the T/C under setting [12] is 97 % of control.
For `COc1cc(CC(=O)C2CN(C(=O)Cc3cc(Cl)c(OC)c(OC)c3)c3ccc(Br)cc32)cc(Cl)c1OC` (centres undefined), the T/C by setting is: (dose: 50.0 mg/kg/injection, schedule: Q01DX001 (ip), vehicle: saline) 96 % of control; under setting [1], 96 % of control; under setting [5], 90 % of control; (dose: 400.0 mg/kg/injection, schedule: Q01DX001 (ip), vehicle: saline) 93 % of control.
Consider `O=C1CC(NC(=O)OCc2ccccc2)C(=O)O1` (centres undefined), for which the T/C under setting [3] is 96 % of control; the T/C under setting [4] was 103 % of control; the T/C under setting [7] was 93 % of control; the T/C under setting [8] was 97 % of control; the T/C under setting [14] was 94 % of control; the T/C under setting [10] is 95 % of control.
Take `CC(C)CC(NC(=O)C(C)NC(=O)OCc1ccccc1)C(=O)OCc1ccccc1` (centres undefined): the T/C is, setting by setting: under setting [12], 92 % of control; (dose: 200.0 mg/kg/injection, schedule: Q04DX003 (ip), vehicle: saline with Tween-80) 92 % of control; (dose: 400.0 mg/kg/injection, schedule: Q04DX003 (ip), vehicle: saline with Tween-80) 91 % of control.
Turning to `COc1cc(N)c2nccc(N(C)C)c2c1`, the T/C under setting [11] is 99 % of control; the T/C under setting [4] was 97 % of control; the T/C under setting [13] was 107 % of control; the T/C under setting [8] was 103 % of control; the T/C under setting [10] is 101 % of control.
